In patent US7659404B2, “Broad spectrum 2-(substituted-amino)-benzothiazole sulfonamide HIV protease inhibitors” (Tibotec Pharmaceuticals Ltd., priority 2001, dated 2010):

Key:
[1] = test system: clinically isolated HIV strain H; format: cell-based; conditions: FR=EC50(mutant strain)/EC50(HIV-1 strain LAI)
Procedure: (§1) HIV- or mock-infected MT4 cells were incubated for five days in the presence of various concentrations of the inhibitor. […] Cell viability is measured by measuring the concentration of MTT, a yellow, water soluble tetrazolium dye that is converted to a purple, water insoluble formazan in the mitochondria of living cells only. Upon solubilization of the resulting formazan crystals with isopropanol, the absorbance of the solution is monitored at 540 nm. The values correlate directly to the number of living cells remaining in the culture at the completion of the five day incubation. The inhibitory activity of the compound was monitored on the virus-infected cells and was expressed as EC50 and EC90. These values represent the amount of the compound required to protect 50% and 90%, respectively, of the cells from the cytopathogenic effect of the virus. The toxicity of the compound was measured on the mock-infected cells and was expressed as CC50, which represents the concentration of compound required to inhibit the growth of the cells by 50%. The selectivity index (SI) (ratio CC50/EC50) is an indication of the selectivity of the anti-HIV activity of the inhibitor.
(§2) Because of the increasing emergence of drug resistant HIV strains, the present compounds were tested for their potency against clinically isolated HIV strains harboring several mutations.
(§3) As a measure of the broad spectrum activity of the present compounds, the fold resistance (FR) defined as FR=EC50(mutant strain)/EC50(HIV-1 strain LAI).

[2] = test system: clinically isolated HIV strain I; format: cell-based; conditions: FR=EC50(mutant strain)/EC50(HIV-1 strain LAI)
Procedure: as §1, §2, §3

[3] = test system: clinically isolated HIV strain O; format: cell-based; conditions: FR=EC50(mutant strain)/EC50(HIV-1 strain LAI)
Procedure: as §1, §2, §3

[4] = test system: clinically isolated HIV strain J; format: cell-based; conditions: FR=EC50(mutant strain)/EC50(HIV-1 strain LAI)
Procedure: as §1, §2, §3

[5] = test system: clinically isolated HIV strain T; format: cell-based; conditions: FR=EC50(mutant strain)/EC50(HIV-1 strain LAI)
Procedure: as §1, §2, §3

virus strain S (R13080) = experiment: microbe, parasite or virus in culture; format: cell-based, HIV; conditions: FR=EC50(mutant strain)/EC50(HIV-1 strain LAI); strain S
Summary of the method: (§4)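 HIV-infected MT4 cells were incubated five days with inhibitor, and viability was read by MTT reduction at 540 nm. EC50/EC90 are the concentrations protecting 50%/90% of cells from viral cytopathic effect. Fold resistance is EC50 against the clinical isolate divided by EC50 against HIV-1 LAI.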

virus strain F (R13025) = experiment: microbe, parasite or virus in culture; format: cell-based, HIV; conditions: FR=EC50(mutant strain)/EC50(HIV-1 strain LAI); strain F
Summary of the method: as §4

Row | Structure (SMILES) | fold resistance (FR), strain H [1] | fold resistance (FR), strain I [2] | fold resistance (FR), strain O [3] | fold resistance (FR), strain J [4] | fold resistance (FR), strain T [5] | fold resistance (FR), strain S (virus strain S (R13080)) | fold resistance (FR), strain F (virus strain F (R13025))
1 | CC(C)CN(C[C@@H](O)[C@H](Cc1ccccc1)NC(=O)OCc1cncs1)S(=O)(=O)c1ccc2nc(NCCN3CCCC3)sc2c1.O=C(O)C(F)(F)F [Compound 50] | 1.4 | 1.7 | 3.5 | 7.0 | 165.5 | 27.9 | 8.6
2 | CC(C)CN(C[C@@H](O)[C@H](Cc1ccccc1)NC(=O)O[C@H]1CO[C@H]2OCC[C@H]21)S(=O)(=O)c1ccc2nc(N3CCN(C)C(=O)C3)sc2c1 [Compound 24] | 4.7 | 1.1 | 1.6 | 4.5 | 174.9 | 24.1 | 16.6
3 | CC(C)CN(C[C@@H](O)[C@H](Cc1ccccc1)NC(=O)O[C@H]1CO[C@H]2OCC[C@H]21)S(=O)(=O)c1ccc2nc(NC(=O)CN3CCNCC3)sc2c1 [Compound 17] | 0.8 | 0.7 | 0.3 | 0.2 | 1.0 | 0.6 | 0.3
4 | CC(C)CN(C[C@@H](O)[C@H](Cc1ccccc1)NC(=O)O[C@H]1CO[C@H]2OCC[C@H]21)S(=O)(=O)c1ccc2nc(NCCN(C)C(=O)OC(C)(C)C)sc2c1 [Compound 21] | 4.8 | 3.7 | 3.4 | 3.3 | 380.0 | 38.6 | 16.6
5 | CC(C)CN(C[C@@H](O)[C@H](Cc1ccccc1)NC(=O)OCc1cncs1)S(=O)(=O)c1ccc2nc(NCCN(C)C)sc2c1 [Compound 48] | 2.5 | 2.5 | 4.3 | 6.5 | 175.0 | 13.8 | 9.4
6 | CC(C)CN(C[C@@H](O)[C@H](Cc1ccccc1)NC(=O)O[C@H]1CCOC1)S(=O)(=O)c1ccc2nc(NCCN3CCCC3)sc2c1.O=C(O)C(F)(F)F [Compound 68] | 7.3 | 2.4 | 3.5 | 3.9 | 775.2 | 180.7 | 65.2
7 | CC(=O)Nc1nc2ccc(S(=O)(=O)N(CC(C)C)C[C@@H](O)[C@H](Cc3ccccc3)NC(=O)c3cc([N+](=O)[O-])ccc3C)cc2s1 [Compound 72] | 24.9 | 26.2 | 24.4 | 11.4 | 641.1 | 118.0 | 67.0
8 | CC(C)CN(C[C@@H](O)[C@H](Cc1ccccc1)NC(=O)OCc1cccnc1)S(=O)(=O)c1ccc2nc(NCCN3CCCC3)sc2c1 [Compound 41] | 2.3 | 2.5 | 2.0 | 5.6 | 252.5 | 37.6 | 44.4
9 | Cc1cc(Br)ccc1C(=O)N[C@@H](Cc1ccccc1)[C@H](O)CN(CC(C)C)S(=O)(=O)c1ccc2nc(NC(=O)CN3CCCC3)sc2c1 [Compound 70] | 3.1 | 3.7 | 3.2 | 3.3 | 145.1 | 10.4 | 4.7
